{"source": "patent US5522922A", "about": "“Aqueous ink composition” (priority 1993, dated 1996)", "assay": "LD50, oral dosing of mice or rabbits", "conditions": "in vivo", "from_the_text": "LD50 means a lethal dose (mg/kg) necessary to kill more than half of examined mice or rabbits when the mice or rabbits are orally dosed with a certain concentration. Safety improves as LD50 increases.\nAs is clear from Table 11, an aqueous ink composition of the present invention is 5 to 8 times more safe than a conventional aqueous ink composition. Therefore, to maintain this standard of safety, triethanolamine used in the present invention is limited to triethanolamine meeting the standards described in the present specification and the Japanese Standards of Cosmetic Ingredient (Yakuji Nippo, Ltd., second edition)."}
{"smiles": "CCN(CC)N=O", "note": "[Diethyl nitrosamine, diethyl nitrosamine]", "values": [{"measurement": "LD50", "result": 15, "unit": "mg/kg"}]}
